Experimental findings from ChEMBL document CHEMBL1909046, “DrugMatrix in vitro pharmacology data” are described below.

Chain of Sodium-dependent dopamine transporter (Q01959 whole entry): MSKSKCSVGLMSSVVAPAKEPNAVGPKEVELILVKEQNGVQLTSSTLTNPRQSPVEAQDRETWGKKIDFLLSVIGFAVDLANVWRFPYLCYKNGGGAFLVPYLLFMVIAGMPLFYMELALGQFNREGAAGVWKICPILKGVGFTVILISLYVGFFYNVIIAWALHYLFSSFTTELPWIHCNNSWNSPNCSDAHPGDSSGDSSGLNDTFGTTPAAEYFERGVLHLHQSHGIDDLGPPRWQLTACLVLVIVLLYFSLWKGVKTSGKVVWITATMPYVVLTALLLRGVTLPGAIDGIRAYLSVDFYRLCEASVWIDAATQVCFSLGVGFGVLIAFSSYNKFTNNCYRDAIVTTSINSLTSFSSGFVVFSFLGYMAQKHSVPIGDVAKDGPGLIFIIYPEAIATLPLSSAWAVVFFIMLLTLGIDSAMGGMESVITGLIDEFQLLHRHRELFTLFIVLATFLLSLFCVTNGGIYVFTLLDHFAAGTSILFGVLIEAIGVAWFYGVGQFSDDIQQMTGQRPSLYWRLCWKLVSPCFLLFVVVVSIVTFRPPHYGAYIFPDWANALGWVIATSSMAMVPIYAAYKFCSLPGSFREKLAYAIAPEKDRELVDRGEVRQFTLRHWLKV
Chain of Melanocortin receptor 3 (P41968 whole entry): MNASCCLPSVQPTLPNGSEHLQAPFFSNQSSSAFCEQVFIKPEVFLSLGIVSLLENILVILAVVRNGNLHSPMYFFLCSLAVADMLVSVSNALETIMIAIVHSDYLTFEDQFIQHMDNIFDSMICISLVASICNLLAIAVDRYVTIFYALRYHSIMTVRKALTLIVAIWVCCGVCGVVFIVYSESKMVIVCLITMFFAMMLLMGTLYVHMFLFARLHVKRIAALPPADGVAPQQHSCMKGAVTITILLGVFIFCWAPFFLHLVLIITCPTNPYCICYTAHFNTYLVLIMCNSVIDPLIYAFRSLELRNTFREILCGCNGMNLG

System in the first assay: not listed separately
Kind of assay: DRUGMATRIX: GABAA, Flunitrazepam, Central radioligand binding (ligand: [3H] Flunitrazepam). The assay is classed as cell membranes, Rattus norvegicus, Wistar, Brain, Membrane. Conditions: Not Active = under 50% inhibition at 10 µM.
Regarding `Nc1ccc(S(N)(=O)=O)cc1` [SULFANILAMIDE], the IC50 entry was “Not Active” and the Ki result is “Not Active”.

With `CC1CN(c2cc3c(cc2F)c(=O)c(C(=O)O)cn3-c2ccc(F)cc2F)CCN1` (centres undefined) [TEMAFLOXACIN], the IC50 entry is recorded as “Not Active” and the Ki entry is recorded as “Not Active”.

Consider `COS(C)(=O)=O` [METHANESULFONIC ACID METHYL ESTER], for which the IC50 entry is on record as “Not Active” and the Ki result is listed as “Not Active”.

System in a further assay: not listed separately
Kind of assay: DRUGMATRIX: Sigma2 radioligand binding (ligand: [3H] Ifenprodil). Type of assay: cell membranes, Rattus norvegicus, Wistar, Brain, Membrane. Conditions: Not Active = under 50% inhibition at 10 µM.
With `Nc1ccc(S(N)(=O)=O)cc1` [SULFANILAMIDE], the IC50 result is listed as “Not Active” and the Ki entry is recorded as “Not Active”.

On to `CC1CN(c2cc3c(cc2F)c(=O)c(C(=O)O)cn3-c2ccc(F)cc2F)CCN1` (centres undefined) [TEMAFLOXACIN], for which the IC50 entry is listed as “Not Active” and the Ki result is listed as “Not Active”.

Take `COS(C)(=O)=O` [METHANESULFONIC ACID METHYL ESTER]: the IC50 entry is given as “Not Active” and the Ki result is on record as “Not Active”.

In a further assay the target is Receptor tyrosine-protein kinase erbB-2 (Homo sapiens, UniProt P04626). Kind of assay: biochemical. The assay is classed as cell-based, Insect cells. The following applies: insect cells.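 Further: inhibition of HER2 kinase enzyme activity, measured with Poly(Glu:Tyr) as the phosphorylation substrate; in other assays of this panel Not Active means under 50% inhibition at 10 µM.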
Chain of Receptor tyrosine-protein kinase erbB-2 (P04626 whole entry): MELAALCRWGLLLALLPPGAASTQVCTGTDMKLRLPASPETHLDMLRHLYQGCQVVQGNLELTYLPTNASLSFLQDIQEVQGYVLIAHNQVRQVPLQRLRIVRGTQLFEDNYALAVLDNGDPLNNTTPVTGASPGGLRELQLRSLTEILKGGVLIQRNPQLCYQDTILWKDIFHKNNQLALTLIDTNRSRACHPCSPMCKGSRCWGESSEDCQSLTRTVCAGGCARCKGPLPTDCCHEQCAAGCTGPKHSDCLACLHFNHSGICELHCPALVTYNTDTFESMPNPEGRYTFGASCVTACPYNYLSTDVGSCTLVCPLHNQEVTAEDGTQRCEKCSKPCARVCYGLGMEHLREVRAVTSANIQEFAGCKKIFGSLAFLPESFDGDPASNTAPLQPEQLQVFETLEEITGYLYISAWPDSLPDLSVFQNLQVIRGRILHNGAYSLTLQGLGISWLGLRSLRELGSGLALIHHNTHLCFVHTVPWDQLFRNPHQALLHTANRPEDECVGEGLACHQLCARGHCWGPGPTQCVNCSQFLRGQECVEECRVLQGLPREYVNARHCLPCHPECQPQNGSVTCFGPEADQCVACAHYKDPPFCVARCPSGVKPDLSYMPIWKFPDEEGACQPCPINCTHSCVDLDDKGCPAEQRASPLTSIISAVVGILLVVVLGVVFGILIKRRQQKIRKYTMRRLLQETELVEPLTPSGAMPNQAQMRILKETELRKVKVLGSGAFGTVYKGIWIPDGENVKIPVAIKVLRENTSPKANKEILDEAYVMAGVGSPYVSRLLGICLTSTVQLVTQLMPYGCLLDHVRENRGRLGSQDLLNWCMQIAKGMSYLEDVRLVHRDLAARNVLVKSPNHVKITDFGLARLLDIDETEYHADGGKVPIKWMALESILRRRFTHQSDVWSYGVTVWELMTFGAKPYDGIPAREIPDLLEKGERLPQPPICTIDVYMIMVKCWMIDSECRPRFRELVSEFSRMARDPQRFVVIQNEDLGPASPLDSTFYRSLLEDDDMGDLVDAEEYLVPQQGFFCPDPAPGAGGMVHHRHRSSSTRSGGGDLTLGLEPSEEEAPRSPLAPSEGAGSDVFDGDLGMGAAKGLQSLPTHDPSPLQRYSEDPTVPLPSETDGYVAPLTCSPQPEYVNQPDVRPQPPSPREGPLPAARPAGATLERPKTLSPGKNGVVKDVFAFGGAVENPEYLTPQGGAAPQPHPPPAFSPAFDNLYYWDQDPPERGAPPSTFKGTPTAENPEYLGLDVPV
For the compound `Nc1ccc(S(N)(=O)=O)cc1` [SULFANILAMIDE], the IC50 result is reported as “Not Active”.

Regarding `CC1CN(c2cc3c(cc2F)c(=O)c(C(=O)O)cn3-c2ccc(F)cc2F)CCN1` (centres undefined) [TEMAFLOXACIN], the IC50 entry was “Not Active”.

Turning to `COS(C)(=O)=O` [METHANESULFONIC ACID METHYL ESTER], the IC50 entry is “Not Active”.

The target of the next assay is T1, Caspase-1 (Homo sapiens, UniProt P29466).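 Further: Caspase-1 enzyme inhibition assay with a peptide substrate; in other assays of this panel Not Active means under 50% inhibition at 10 µM.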
T1 sequence (P29466 whole entry): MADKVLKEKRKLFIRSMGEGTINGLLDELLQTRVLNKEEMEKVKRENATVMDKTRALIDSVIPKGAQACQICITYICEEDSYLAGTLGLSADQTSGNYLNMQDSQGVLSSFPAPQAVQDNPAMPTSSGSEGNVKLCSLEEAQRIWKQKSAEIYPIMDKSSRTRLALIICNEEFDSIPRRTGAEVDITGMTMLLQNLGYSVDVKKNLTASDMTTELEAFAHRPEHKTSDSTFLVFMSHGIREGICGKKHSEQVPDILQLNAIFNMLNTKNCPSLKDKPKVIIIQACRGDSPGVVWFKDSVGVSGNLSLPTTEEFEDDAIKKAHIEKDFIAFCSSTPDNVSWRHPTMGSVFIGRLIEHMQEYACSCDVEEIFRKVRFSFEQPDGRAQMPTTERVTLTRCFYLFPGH
Assay: not given
Also on record: species or system Escherichia coli.
Settings: not given
Turning to `Nc1ccc(S(N)(=O)=O)cc1` [SULFANILAMIDE], the IC50 result is recorded as “Not Active”.

As to `CC1CN(c2cc3c(cc2F)c(=O)c(C(=O)O)cn3-c2ccc(F)cc2F)CCN1` (centres undefined) [TEMAFLOXACIN], the IC50 entry is “Not Active”.

`COS(C)(=O)=O` [METHANESULFONIC ACID METHYL ESTER]: the IC50 result is reported as “Not Active”.

The target of the next assay is Histamine H2 receptor (Homo sapiens, UniProt P25021). Further: in other assays of this panel Not Active means under 50% inhibition at 10 µM.
Chain of Histamine H2 receptor (P25021 whole entry): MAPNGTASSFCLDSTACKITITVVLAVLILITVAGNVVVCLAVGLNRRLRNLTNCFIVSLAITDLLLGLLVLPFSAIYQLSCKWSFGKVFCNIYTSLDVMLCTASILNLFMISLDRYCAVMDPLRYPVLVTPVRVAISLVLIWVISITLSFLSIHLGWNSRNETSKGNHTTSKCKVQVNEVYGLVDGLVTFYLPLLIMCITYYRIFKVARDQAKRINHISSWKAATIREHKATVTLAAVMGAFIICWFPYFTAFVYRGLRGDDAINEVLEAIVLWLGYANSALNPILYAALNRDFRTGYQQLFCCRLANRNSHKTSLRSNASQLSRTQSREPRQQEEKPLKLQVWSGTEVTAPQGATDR
Assay: not given
The assay is classed as cell membranes, CHO-K1, Membrane. The following applies: cho-k1.
For `Nc1ccc(S(N)(=O)=O)cc1` [SULFANILAMIDE], the IC50 entry is on record as “Not Active”.

With `CC1CN(c2cc3c(cc2F)c(=O)c(C(=O)O)cn3-c2ccc(F)cc2F)CCN1` (centres undefined) [TEMAFLOXACIN], the IC50 entry is on record as “Not Active”.

Regarding `COS(C)(=O)=O` [METHANESULFONIC ACID METHYL ESTER], the IC50 entry is “Not Active”.

The target of another assay is T2, Muscarinic acetylcholine receptor M5 (Homo sapiens, UniProt P08912). Further: in other assays of this panel Not Active means under 50% inhibition at 10 µM.
T2 sequence (P08912 whole entry): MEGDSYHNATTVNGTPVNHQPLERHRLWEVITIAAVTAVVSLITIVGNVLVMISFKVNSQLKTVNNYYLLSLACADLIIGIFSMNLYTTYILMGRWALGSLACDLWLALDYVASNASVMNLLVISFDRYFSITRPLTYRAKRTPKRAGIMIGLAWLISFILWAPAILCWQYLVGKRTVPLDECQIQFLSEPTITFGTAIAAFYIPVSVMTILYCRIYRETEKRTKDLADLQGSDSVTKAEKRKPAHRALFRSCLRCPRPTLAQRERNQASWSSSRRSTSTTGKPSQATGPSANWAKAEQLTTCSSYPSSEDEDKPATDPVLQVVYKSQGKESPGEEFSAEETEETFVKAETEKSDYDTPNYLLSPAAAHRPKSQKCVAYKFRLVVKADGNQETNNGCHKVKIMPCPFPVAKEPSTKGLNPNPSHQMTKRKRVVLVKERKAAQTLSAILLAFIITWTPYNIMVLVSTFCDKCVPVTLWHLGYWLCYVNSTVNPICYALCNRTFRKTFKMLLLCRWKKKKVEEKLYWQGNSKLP
Assay: not given
The assay is classed as cell membranes, CHO-K1, Membrane. The following applies: cho-k1.
`Nc1ccc(S(N)(=O)=O)cc1` [SULFANILAMIDE]: the IC50 result was “Not Active”.

Take `CC1CN(c2cc3c(cc2F)c(=O)c(C(=O)O)cn3-c2ccc(F)cc2F)CCN1` (centres undefined) [TEMAFLOXACIN]: the IC50 entry was “Not Active”.

On to `COS(C)(=O)=O` [METHANESULFONIC ACID METHYL ESTER], for which the IC50 entry is “Not Active”.

System in another assay: not listed separately
The assay can be described thus: DRUGMATRIX: Leukotriene, BLT (LTB4) radioligand binding (ligand: [3H]LTB4). Type of assay: cell membranes, Membrane. The following applies: u-937; Not Active = under 50% inhibition at 10 µM.
In the case of `Nc1ccc(S(N)(=O)=O)cc1` [SULFANILAMIDE], the IC50 entry is “Not Active” and the Ki entry was “Not Active”.

`CC1CN(c2cc3c(cc2F)c(=O)c(C(=O)O)cn3-c2ccc(F)cc2F)CCN1` (centres undefined) [TEMAFLOXACIN]: the IC50 result is “Not Active” and the Ki entry was “Not Active”.

As for `COS(C)(=O)=O` [METHANESULFONIC ACID METHYL ESTER], the IC50 result is reported as “Not Active” and the Ki entry was “Not Active”.

The target of a further assay is Insulin receptor (Rattus norvegicus, UniProt P15127). Further: in other assays of this panel Not Active means under 50% inhibition at 10 µM.
Chain of Insulin receptor (P15127 27-759 limits assumed): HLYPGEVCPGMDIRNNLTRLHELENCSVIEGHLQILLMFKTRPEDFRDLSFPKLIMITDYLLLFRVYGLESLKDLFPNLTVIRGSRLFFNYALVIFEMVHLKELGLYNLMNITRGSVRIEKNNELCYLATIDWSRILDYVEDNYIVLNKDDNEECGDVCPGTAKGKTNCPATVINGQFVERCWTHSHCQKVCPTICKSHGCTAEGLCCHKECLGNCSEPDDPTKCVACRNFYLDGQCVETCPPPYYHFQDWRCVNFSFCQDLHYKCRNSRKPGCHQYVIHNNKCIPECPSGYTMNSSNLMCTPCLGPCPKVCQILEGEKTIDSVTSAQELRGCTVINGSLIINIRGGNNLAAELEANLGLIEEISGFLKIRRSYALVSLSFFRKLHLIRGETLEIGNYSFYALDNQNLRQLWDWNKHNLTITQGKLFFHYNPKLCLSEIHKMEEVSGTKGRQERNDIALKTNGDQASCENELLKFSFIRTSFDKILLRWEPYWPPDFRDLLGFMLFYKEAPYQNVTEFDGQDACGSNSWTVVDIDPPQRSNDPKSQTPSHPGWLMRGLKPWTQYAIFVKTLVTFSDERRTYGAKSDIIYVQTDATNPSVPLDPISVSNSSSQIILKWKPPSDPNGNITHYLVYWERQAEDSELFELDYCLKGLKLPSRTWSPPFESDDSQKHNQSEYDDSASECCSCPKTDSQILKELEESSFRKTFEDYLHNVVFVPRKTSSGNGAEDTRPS
Chain of Insulin receptor (P15127 764-1383 limits assumed): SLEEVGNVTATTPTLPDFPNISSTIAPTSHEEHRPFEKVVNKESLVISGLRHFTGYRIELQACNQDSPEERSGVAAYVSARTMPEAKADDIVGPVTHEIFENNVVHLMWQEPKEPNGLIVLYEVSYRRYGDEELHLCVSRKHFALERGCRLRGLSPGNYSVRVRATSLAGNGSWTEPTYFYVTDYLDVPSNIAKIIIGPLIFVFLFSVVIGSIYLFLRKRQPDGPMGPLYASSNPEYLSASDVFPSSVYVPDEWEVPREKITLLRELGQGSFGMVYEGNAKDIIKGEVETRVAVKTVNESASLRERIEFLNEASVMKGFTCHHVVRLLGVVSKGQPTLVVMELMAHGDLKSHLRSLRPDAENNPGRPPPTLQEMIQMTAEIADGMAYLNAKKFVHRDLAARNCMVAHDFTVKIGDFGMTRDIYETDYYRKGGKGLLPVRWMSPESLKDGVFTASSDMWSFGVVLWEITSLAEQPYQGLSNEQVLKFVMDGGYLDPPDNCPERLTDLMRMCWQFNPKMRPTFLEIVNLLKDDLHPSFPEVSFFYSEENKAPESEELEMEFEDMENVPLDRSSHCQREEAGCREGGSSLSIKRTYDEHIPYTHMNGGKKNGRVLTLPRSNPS
Assay: not given
Settings: not given
The assay is classed as cell membranes, Wistar, Liver, Membrane.
With `Nc1ccc(S(N)(=O)=O)cc1` [SULFANILAMIDE], the IC50 result is “Not Active”.

Consider `CC1CN(c2cc3c(cc2F)c(=O)c(C(=O)O)cn3-c2ccc(F)cc2F)CCN1` (centres undefined) [TEMAFLOXACIN], for which the IC50 result was “Not Active”.

Turning to `COS(C)(=O)=O` [METHANESULFONIC ACID METHYL ESTER], the IC50 result is recorded as “Not Active”.

For the next assay, the target named is Tyrosine-protein kinase Fyn (Homo sapiens, UniProt P06241). The assay can be described thus: biochemical. Type of assay: cell-based, Insect cells. The following applies: insect cells.
As for `Nc1ccc(S(N)(=O)=O)cc1` [SULFANILAMIDE], the IC50 result was “Not Active”.

For `CC1CN(c2cc3c(cc2F)c(=O)c(C(=O)O)cn3-c2ccc(F)cc2F)CCN1` (centres undefined) [TEMAFLOXACIN], the IC50 entry is listed as “Not Active”.

In the case of `COS(C)(=O)=O` [METHANESULFONIC ACID METHYL ESTER], the IC50 entry is given as “Not Active”.

The next assay addresses T3, Muscarinic acetylcholine receptor M4 (Homo sapiens, UniProt P08173).
T3 sequence (P08173 whole entry): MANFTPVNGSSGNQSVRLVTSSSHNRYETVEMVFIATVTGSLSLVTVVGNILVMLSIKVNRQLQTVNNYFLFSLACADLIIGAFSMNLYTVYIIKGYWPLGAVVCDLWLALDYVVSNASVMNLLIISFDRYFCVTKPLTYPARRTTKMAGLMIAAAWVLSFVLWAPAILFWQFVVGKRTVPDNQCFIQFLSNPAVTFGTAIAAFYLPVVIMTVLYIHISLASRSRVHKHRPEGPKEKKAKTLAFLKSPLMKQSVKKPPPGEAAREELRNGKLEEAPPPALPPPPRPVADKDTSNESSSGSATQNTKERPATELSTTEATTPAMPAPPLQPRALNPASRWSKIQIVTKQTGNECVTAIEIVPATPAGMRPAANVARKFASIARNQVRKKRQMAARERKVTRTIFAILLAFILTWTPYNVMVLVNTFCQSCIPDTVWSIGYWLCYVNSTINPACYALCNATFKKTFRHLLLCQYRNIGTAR
Assay: not given
The assay is classed as cell membranes, CHO-K1, Membrane. Conditions: cho-k1.
For the compound `Nc1ccc(S(N)(=O)=O)cc1` [SULFANILAMIDE], the IC50 result is listed as “Not Active”.

Turning to `CC1CN(c2cc3c(cc2F)c(=O)c(C(=O)O)cn3-c2ccc(F)cc2F)CCN1` (centres undefined) [TEMAFLOXACIN], the IC50 entry was “Not Active”.

For the compound `COS(C)(=O)=O` [METHANESULFONIC ACID METHYL ESTER], the IC50 entry is “Not Active”.

In another assay the target is T4, Neutrophil elastase (Homo sapiens, UniProt P08246).
T4 sequence (P08246 whole entry): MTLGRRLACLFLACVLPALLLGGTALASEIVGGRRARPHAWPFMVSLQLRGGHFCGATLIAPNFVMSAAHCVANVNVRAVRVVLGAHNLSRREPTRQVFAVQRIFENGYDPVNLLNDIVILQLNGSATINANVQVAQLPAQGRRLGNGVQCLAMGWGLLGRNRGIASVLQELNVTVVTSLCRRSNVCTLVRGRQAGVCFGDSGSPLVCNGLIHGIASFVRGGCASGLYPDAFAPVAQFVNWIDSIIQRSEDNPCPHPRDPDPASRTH
Assay: not given
Type of assay: tissue-based.
Settings: not given
Take `Nc1ccc(S(N)(=O)=O)cc1` [SULFANILAMIDE]: the IC50 result is listed as “Not Active”.

For `CC1CN(c2cc3c(cc2F)c(=O)c(C(=O)O)cn3-c2ccc(F)cc2F)CCN1` (centres undefined) [TEMAFLOXACIN], the IC50 result is recorded as “Not Active”.

For `COS(C)(=O)=O` [METHANESULFONIC ACID METHYL ESTER], the IC50 result is recorded as “Not Active”.

Another assay deals with Melanocortin receptor 5 (Homo sapiens, UniProt P33032).
Chain of Melanocortin receptor 5 (P33032 whole entry): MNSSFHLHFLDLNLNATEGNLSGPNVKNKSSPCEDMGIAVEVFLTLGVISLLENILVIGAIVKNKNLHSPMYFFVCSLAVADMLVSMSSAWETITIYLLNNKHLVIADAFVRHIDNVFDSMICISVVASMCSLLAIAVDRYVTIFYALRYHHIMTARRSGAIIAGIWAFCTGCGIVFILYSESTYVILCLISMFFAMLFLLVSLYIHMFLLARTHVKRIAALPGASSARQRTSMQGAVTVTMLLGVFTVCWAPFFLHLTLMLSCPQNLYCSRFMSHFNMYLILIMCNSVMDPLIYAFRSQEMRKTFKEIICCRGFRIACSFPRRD
Assay: not given
The assay is classed as cell membranes, HEK293, Membrane. The following applies: hek293.
Regarding `Nc1ccc(S(N)(=O)=O)cc1` [SULFANILAMIDE], the IC50 entry is on record as “Not Active”.

As for `CC1CN(c2cc3c(cc2F)c(=O)c(C(=O)O)cn3-c2ccc(F)cc2F)CCN1` (centres undefined) [TEMAFLOXACIN], the IC50 result is recorded as “Not Active”.

On to `COS(C)(=O)=O` [METHANESULFONIC ACID METHYL ESTER], for which the IC50 result is on record as “Not Active”.

A further assay addresses Melanocortin receptor 3 (Homo sapiens, UniProt P41968).
Assay: not given
The assay is classed as cell membranes, Membrane. Conditions: hek293.
Consider `Nc1ccc(S(N)(=O)=O)cc1` [SULFANILAMIDE], for which the IC50 entry was “Not Active”.

With `CC1CN(c2cc3c(cc2F)c(=O)c(C(=O)O)cn3-c2ccc(F)cc2F)CCN1` (centres undefined) [TEMAFLOXACIN], the IC50 entry is reported as “Not Active”.

With `COS(C)(=O)=O` [METHANESULFONIC ACID METHYL ESTER], the IC50 entry is recorded as “Not Active”.

The next assay has as its target Sodium-dependent dopamine transporter (Homo sapiens, UniProt Q01959). The assay can be described thus: DRUGMATRIX: Dopamine Transporter radioligand binding (ligand: [125I] RTI-55). The assay is classed as cell membranes, CHO-K1, Membrane. The following applies: cho-k1; Not Active = under 50% inhibition at 10 µM.
In the case of `Nc1ccc(S(N)(=O)=O)cc1` [SULFANILAMIDE], the IC50 result is reported as “Not Active”.

`CC1CN(c2cc3c(cc2F)c(=O)c(C(=O)O)cn3-c2ccc(F)cc2F)CCN1` (centres undefined) [TEMAFLOXACIN]: the IC50 entry is “Not Active”.

With `COS(C)(=O)=O` [METHANESULFONIC ACID METHYL ESTER], the IC50 entry is “Not Active”.

The target in the next assay is 5-hydroxytryptamine receptor 1B (Rattus norvegicus, UniProt P28564). Further: in other assays of this panel Not Active means under 50% inhibition at 10 µM.
Chain of 5-hydroxytryptamine receptor 1B (P28564 whole entry): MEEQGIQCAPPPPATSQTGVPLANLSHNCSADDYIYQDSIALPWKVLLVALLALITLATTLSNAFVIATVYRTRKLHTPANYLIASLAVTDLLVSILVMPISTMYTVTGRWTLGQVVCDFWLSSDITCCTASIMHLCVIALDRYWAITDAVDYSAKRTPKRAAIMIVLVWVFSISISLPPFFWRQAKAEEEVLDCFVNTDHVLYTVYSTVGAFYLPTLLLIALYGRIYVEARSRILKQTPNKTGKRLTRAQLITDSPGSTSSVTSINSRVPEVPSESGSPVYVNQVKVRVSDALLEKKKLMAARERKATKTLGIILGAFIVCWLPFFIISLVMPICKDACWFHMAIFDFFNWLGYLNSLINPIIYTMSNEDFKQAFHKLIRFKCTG
Assay: not given
Type of assay: cell membranes, Wistar, Cerebral cortex, Membrane.
Settings: not given
For the compound `Nc1ccc(S(N)(=O)=O)cc1` [SULFANILAMIDE], the IC50 result is listed as “Not Active”.

`CC1CN(c2cc3c(cc2F)c(=O)c(C(=O)O)cn3-c2ccc(F)cc2F)CCN1` (centres undefined) [TEMAFLOXACIN]: the IC50 entry was “Not Active”.

On to `COS(C)(=O)=O` [METHANESULFONIC ACID METHYL ESTER], for which the IC50 result is recorded as “Not Active”.
